Read-outs that look alike come from different tables or passages of the source.
Legend:
ALK = ALK (Homo sapiens (Human), UniProt Q9UM73); assay: In vitro kinase activity assay (LANCE TR-FRET); type: biochemical;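 note: kinase reactions with ATP and a poly-GT peptide substrate, phosphorylated product read by time-resolved FRET, 11-point curve from 10^−11 to 10^−5 M, DMSO as negative control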
RET = RET (Homo sapiens (Human), UniProt P07949); assay: In vitro kinase activity assay (LANCE TR-FRET); type: biochemical
ROS = ROS (Homo sapiens (Human), UniProt P08922); assay: In vitro kinase activity assay (LANCE TR-FRET); type: biochemical
ROS, sequence (P08922 28-2347): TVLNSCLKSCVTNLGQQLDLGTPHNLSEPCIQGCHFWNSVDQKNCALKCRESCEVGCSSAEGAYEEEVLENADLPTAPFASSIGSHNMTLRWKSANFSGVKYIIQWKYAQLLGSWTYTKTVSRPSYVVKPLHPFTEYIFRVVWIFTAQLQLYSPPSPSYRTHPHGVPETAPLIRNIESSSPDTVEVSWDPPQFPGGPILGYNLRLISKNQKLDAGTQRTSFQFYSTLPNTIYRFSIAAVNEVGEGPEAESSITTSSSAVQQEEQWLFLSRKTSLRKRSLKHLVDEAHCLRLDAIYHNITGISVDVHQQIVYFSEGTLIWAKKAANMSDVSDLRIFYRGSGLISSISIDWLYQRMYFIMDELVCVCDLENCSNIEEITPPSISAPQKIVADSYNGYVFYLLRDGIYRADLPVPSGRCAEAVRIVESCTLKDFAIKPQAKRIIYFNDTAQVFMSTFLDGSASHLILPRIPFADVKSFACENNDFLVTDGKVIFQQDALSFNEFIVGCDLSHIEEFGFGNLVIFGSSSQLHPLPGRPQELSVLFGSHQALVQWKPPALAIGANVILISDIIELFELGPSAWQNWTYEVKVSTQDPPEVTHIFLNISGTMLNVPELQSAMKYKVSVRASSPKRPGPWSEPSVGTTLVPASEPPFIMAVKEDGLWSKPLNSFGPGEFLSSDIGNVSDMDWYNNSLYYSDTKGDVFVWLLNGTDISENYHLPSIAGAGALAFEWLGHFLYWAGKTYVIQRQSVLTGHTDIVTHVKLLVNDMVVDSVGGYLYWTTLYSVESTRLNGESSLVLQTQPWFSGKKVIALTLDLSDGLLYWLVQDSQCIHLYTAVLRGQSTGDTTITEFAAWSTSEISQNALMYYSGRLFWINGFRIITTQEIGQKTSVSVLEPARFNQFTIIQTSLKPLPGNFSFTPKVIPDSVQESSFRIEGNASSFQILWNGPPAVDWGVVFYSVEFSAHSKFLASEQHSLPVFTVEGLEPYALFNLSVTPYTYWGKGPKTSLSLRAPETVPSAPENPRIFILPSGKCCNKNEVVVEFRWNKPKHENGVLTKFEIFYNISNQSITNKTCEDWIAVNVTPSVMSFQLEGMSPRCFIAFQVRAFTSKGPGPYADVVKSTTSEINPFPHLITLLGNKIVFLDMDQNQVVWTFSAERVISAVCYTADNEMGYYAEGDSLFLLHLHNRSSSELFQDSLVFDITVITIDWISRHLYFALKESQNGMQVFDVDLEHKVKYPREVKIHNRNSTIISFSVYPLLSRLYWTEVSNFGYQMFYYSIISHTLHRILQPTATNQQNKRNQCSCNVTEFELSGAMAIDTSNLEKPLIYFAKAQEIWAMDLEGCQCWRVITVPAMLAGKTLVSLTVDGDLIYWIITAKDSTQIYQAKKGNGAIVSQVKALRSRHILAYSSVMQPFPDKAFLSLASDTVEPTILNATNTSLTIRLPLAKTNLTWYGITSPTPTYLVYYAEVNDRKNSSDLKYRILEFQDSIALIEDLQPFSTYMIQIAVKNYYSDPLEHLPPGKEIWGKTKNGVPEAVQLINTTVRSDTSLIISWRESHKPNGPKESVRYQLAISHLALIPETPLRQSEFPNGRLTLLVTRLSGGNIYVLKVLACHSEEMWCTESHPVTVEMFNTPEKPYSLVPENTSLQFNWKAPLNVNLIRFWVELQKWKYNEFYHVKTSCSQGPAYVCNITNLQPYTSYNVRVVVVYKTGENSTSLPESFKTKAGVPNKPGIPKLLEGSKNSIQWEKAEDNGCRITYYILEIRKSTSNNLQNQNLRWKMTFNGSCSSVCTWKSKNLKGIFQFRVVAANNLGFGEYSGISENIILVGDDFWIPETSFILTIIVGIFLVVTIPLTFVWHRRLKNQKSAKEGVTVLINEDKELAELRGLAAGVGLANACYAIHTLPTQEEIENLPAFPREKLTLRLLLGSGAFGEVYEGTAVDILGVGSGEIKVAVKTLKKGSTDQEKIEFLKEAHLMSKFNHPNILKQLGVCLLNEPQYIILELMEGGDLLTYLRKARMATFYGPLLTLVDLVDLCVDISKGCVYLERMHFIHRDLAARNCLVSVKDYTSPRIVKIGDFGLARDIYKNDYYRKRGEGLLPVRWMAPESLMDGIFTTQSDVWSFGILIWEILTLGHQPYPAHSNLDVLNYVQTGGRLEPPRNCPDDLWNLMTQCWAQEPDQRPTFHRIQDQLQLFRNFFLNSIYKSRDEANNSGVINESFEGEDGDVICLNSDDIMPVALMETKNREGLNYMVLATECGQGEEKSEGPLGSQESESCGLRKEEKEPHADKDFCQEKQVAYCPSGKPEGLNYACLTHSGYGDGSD

TrkA = TrkA (Homo sapiens (Human), UniProt P04629); assay: In vitro kinase activity assay (LANCE TR-FRET); type: biochemical;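 note: kinase reaction with poly-GT peptide substrate and ATP, phosphorylated product quantified by time-resolved FRET, eleven-point dose curves from 10^−11 to 10^−5 M in triplicate, DMSO as negative control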
[1] = Metabolic stability, Phase I microsome reactions; type: in vitro ADME, mouse; settings: 1.0 mg/ml microsomes; for microsomal CLint at 0.5 μM / half-life at 0.5 μM: mouse, liver microsomes, pH 7.4, Phase I only; for microsomal CLint at 0.5 μM: read-out: Mouse LM-P1 CL; for half-life at 0.5 μM: read-out: Mouse LM-P1 Half-life
in vitro [2] = settings: rat, microsomes; for half-life at 0.5 μM: pH 7.4; for microsomal CLint at 0.5 μM: pH 7.4, Rat LM-P1 CL (ul/min/mg)
cMET = cMET (Homo sapiens (Human), UniProt P08581); assay: In vitro kinase activity assay (LANCE TR-FRET); type: biochemical
in vitro [3] = settings: human, microsomes; for microsomal CLint at 0.5 μM: pH 7.4, Human LM-P1 CL (ul/min/mg); for half-life at 0.5 μM: pH 7.4, Human LM-P1 Half-life (min)
[4] = Rat pharmacokinetics / bioavailability; type: in vivo
Caco-2 cells = assay: Caco-2 cell permeation study; type: in vitro ADME; settings: for Papp (10−6 cm/sec) A to B / Papp (10−6 cm/sec) B to A: 10 μM; for Papp (10−6 cm/sec) A to B: apical pH 6.5, 2 h; for Papp (10−6 cm/sec) B to A: basolateral pH 7.4, 2 h; for Efflux Ratio: Caco-2;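 for all read-outs here: Caco-2 monolayers grown for 21–28 days with integrity confirmed by TEER, apical buffer HBSS with MES, basolateral buffer HBSS with HEPES, compound levels quantified by LC/MS/MS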
[5] = Caco-2 cell permeation study; type: in vitro ADME; settings: human; for efflux ratio at 2 h, 10 μM: Caco-2, Caco-2; for Papp A→B at 2 h, 10 μM: Caco-2, pH 6.5, 10 μM, apical pH 6.5, 2 h; for Papp B→A at 2 h, 10 μM: Caco-2, pH 7.4, 10 μM, basolateral pH 7.4, 2 h;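 for all read-outs here: Caco-2 monolayers grown for 21–28 days with integrity confirmed by TEER, apical buffer HBSS with MES, basolateral buffer HBSS with HEPES, compound levels quantified by LC/MS/MS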
U937 lymphoma cells = assay: Cellular assay, 3 day cell viability (WST-1); type: cell-based; settings: Homo sapiens, U-937, 72 h
SUDHL-1 lymphoma cells = assay: Cellular assay, 3 day cell viability (WST-1); type: cell-based; settings: Homo sapiens, SU-DHL-1, 72 h
[6] = target: hERG (human ether-a-go-go related gene) potassium channel (Homo sapiens (Human), UniProt Q12809); assay: hERG potassium channel current, automated patch clamp (PatchXpress 7000A);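 note: Four-point series of 0.3, 3, 10 and 30 µM, two cells recorded per concentration, 5 min exposure at each level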
hERG (human ether-a-go-go related gene) potassium channel, sequence (Q12809 whole entry): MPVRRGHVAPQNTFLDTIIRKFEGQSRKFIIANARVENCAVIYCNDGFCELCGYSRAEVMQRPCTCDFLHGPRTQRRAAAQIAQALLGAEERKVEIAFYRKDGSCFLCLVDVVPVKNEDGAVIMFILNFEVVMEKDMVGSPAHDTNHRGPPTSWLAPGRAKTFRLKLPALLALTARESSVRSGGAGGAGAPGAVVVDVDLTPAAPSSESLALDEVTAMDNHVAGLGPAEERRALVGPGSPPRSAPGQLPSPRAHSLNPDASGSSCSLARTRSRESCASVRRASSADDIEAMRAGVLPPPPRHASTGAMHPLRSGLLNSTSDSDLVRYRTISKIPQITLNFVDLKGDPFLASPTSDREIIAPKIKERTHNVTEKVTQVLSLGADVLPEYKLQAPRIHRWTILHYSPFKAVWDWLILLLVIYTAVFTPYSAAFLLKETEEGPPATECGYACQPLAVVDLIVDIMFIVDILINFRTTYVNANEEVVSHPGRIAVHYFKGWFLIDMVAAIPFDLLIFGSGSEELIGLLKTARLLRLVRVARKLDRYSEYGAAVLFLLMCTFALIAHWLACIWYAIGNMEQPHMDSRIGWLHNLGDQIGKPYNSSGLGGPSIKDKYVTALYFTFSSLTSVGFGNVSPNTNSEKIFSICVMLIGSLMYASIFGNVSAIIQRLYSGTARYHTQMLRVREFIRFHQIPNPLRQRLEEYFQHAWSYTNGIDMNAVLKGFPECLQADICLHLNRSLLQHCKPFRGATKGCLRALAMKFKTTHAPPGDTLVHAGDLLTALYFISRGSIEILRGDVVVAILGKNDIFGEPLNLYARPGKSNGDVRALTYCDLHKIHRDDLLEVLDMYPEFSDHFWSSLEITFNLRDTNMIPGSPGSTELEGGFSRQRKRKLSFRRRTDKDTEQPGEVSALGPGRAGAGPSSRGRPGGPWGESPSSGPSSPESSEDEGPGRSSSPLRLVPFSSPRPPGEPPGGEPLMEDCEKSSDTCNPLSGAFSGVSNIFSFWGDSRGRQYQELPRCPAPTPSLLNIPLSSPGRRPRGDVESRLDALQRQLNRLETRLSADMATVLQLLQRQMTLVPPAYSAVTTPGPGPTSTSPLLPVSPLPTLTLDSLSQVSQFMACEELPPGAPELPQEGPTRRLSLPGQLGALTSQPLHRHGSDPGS

K299 lymphoma cells = assay: Cellular assay, 3 day cell viability (WST-1); type: cell-based; settings: 72 h, 3 days
NB-1 neuroblastoma cells = assay: Cellular assay, 3 day cell viability (WST-1); type: cell-based; settings: 72 h
[7] = 3 days, WST-1, read-out: U937 IC50
[8] = male, Sprague-Dawley, plasma, po, 10 mg/kg P.O.

ALK, sequence (Q9UM73 19-1620): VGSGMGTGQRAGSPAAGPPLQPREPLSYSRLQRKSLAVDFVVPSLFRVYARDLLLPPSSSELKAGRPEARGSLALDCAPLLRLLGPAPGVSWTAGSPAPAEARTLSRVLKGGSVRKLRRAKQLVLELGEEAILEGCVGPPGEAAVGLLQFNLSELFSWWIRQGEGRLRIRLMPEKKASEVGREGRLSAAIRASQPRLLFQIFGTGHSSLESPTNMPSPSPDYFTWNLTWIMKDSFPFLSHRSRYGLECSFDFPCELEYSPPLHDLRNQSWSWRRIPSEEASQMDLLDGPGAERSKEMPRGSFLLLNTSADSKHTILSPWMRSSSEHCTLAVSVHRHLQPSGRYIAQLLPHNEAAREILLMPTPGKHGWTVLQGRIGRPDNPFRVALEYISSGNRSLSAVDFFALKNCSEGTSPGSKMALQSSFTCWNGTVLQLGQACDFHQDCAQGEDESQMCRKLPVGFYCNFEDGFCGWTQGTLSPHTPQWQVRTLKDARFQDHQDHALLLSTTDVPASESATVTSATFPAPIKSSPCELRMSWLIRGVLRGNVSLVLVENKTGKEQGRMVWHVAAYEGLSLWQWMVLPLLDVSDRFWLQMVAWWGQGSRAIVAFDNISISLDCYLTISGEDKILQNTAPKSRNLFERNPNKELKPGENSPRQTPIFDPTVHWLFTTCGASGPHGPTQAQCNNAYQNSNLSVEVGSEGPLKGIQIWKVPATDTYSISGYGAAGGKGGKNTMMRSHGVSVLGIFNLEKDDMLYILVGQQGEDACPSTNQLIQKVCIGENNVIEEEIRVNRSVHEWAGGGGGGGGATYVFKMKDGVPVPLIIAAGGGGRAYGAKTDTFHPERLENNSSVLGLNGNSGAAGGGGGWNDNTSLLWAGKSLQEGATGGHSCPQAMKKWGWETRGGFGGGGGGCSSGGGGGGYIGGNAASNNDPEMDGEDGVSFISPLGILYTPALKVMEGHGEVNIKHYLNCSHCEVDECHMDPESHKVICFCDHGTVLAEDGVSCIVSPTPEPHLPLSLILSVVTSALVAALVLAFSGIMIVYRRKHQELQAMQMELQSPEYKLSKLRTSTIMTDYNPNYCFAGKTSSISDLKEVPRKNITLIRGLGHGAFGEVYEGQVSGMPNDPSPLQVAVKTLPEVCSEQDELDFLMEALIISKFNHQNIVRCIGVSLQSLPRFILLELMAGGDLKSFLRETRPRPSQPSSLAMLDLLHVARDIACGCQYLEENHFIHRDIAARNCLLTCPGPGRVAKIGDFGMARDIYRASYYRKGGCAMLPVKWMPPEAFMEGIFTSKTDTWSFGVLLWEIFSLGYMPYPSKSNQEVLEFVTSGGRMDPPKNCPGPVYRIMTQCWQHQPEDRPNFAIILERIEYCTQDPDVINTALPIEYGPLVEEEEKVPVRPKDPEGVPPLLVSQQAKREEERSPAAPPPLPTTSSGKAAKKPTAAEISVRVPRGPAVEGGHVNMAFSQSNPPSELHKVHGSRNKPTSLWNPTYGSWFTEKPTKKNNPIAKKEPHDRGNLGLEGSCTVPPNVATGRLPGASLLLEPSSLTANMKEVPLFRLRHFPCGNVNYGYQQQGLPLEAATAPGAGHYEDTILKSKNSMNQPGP

Row | IC50 (ALK; read-out: ALK (nM) IC50) [nM] | IC50 (ALK; read-out: GTx-ALK IC50) [nM] | IC50 (RET; read-out: GTx-RET IC50) [nM] | IC50 (RET; read-out: RET (nM) IC50) [nM] | IC50 (ROS; read-out: GTx-ROS IC50) [nM] | IC50 (ROS; read-out: ROS (nM) IC50) [nM] | IC50 (TrkA; read-out: GTx-TrKA IC50) [nM] | IC50 (TrkA; read-out: TrkA (nM) IC50) [nM] | microsomal CLint at 0.5 μM [1] [µL/min/mg] | half-life at 0.5 μM [1] [h] | half-life at 0.5 μM (in vitro [2]) [h] | microsomal CLint at 0.5 μM (in vitro [2]) [µL/min/mg] | IC50 (ALK; read-out: ALK IC50) [nM] | IC50 (cMET) [nM] | microsomal CLint at 0.5 μM (in vitro [3]) [µL/min/mg] | half-life at 0.5 μM (in vitro [3]) [h] | IC50 (TrkA; read-out: TrKA IC50) [nM] | Papp (10−6 cm/sec) B to A (Caco-2 cells) | Papp A→B at 2 h, 10 μM [5] [×10⁻⁶ cm/s] | Papp B→A at 2 h, 10 μM [5] [×10⁻⁶ cm/s] | Structure (SMILES) | also measured
1 | > 10000 | > 10000 | > 10000 | > 10000 | 5 | 4.53 | > 10000 | > 10000 | – | – | – | – | – | – | – | – | – | – | – | – | CC(Cc1c(F)c(F)cc(F)c1F)Nc1cc[nH]c(=O)c1-c1nc2cc3c(cc2[nH]1)C(=O)N(C)C3=O (centres unmarked) [Compound 41, 2-(4-(1-(2,3,5,6-Tetrafluorophenyl)propan-2-ylamino)-2-oxo-1,2-dihydropyridin-3-yl)-6-methylimidazo[4,5-f]isoindole-5,7(1H,6H)-dione] | –
2 | 14.6 | – | – | 11.1 | – | 2.37 | – | 5.99 | – | – | – | – | – | – | – | – | – | – | – | – | Cc1c2c(cc3[nH]c(-c4c(NC(C)Cc5c(F)c(F)cc(F)c5F)cc[nH]c4=O)nc13)C(=O)N(C1CCN(C)CC1)C2 (centres unmarked) [Compound 24A, 8-Methyl-6-(1-methylpiperidin-4-yl)-2-(2-oxo-4-(1-(2,3,5,6-tetrafluorophenyl)propan-2-ylamino)-1,2-dihydropyridin-3-yl)-6,7-dihydroimidazo[4,5-f]isoindol-5(3H)-one] | –
3 | 174 | – | – | – | – | – | – | 41.6 | < 5.8 | > 2 | 1.71 | 6.76 | 174 | > 10000 | < 5.8 | > 2 | 42 | – | – | – | COC1c2cc3nc(-c4c(N[C@@H](C)Cc5c(F)c(F)cc(F)c5F)cc[nH]c4=O)[nH]c3cc2C(=O)N1c1cccnc1 (stereo partly drawn) [Compound 14, 7-Methoxy-2-(2-oxo-4-(((S)-1-(2,3,5,6-tetrafluorophenyl)propan-2-yl)amino)-1,2-dihydropyridin-3-yl)-6-(pyridin-3-yl)-6,7-dihydroimidazo[4,5-f]isoindol-5(1H)-one] | –
4 | 34.1 | – | – | 16.9 | – | 1.88 | – | 7.81 | – | – | 0.145 | 78 | – | – | 25.3 | 0.457 | – | 7.41 10−6 cm/sec | 1.25 | 8.24 | CC(Cc1cc(F)ccc1F)Nc1cc[nH]c(=O)c1-c1nc2cc3c(cc2[nH]1)CNC3=O (centres unmarked) [Compound 53] | IV_AUC0-1440 Rat 10 mpk ([4]; 10 mg/kg I.V.): 531 µg·min/mL; PO_AUC0-1440 Rat 10 mpk ([4]; 10 mg/kg P.O.): 2.13 µg·min/mL; bioavailability ([4]; male, Sprague-Dawley, plasma, po, 10 mg/kg P.O., read-out: Rat F %): 0.402%; Papp (10−6 cm/sec) A to B (Caco-2 cells): 0.76 10−6 cm/sec; Efflux Ratio (Caco-2 cells): 10.1; efflux ratio at 2 h, 10 μM [5]: 6.6
5 | > 10000 | > 10000 | > 10000 | > 10000 | 1120 | 1200 | 6510 | 6510 | – | – | – | – | – | – | – | – | – | – | – | – | CC(Cc1c(F)c(F)cc(F)c1F)Nc1cc[nH]c(=O)c1-c1nc2cc3c(cc2n1C)C(=O)N(C)C3 (stereo not drawn) [Compound 43a, Cis-1,6-Dimethyl-2(2-oxo-4-(1-(2,3,5,6-tetrafluorophenyl)propan-2-ylamino)-1,2-dihydropyridin-3-yl)-6,7-dihydroimidazo[4,5-J]isoindol-5(1H)-one] | –
6 | 24.7 | 25 | 18 | 17.7 | 0.7 | 0.74 | 5 | 5.13 | – | – | 0.119 | 97.2 | – | – | 26.1 | 0.443 | – | 1.4 10−6 cm/sec | – | – | CC(Cc1cc(F)ccc1F)Nc1cc[nH]c(=O)c1-c1nc2cc3c(cc2[nH]1)CN(C)C3=O (centres unmarked) [Compound 33, 2-(4-(1-(2,5-Difluorophenyl)propan-2-ylamino)-2-oxo-1,2-dihydropyridin-3-yl)-6-methyl-6,7-dihydroimidazo[4,5-f]isoindol-5(1H)-one] | Mouse LM-P1 CL ([1]; Phase I only, 0.5 μM): 12.82 µL/min/mg; IC50 (U937 lymphoma cells; 3 days, WST-1, read-out: GTx-U937 IC50): > 10 µM; IC50 (SUDHL-1 lymphoma cells; 3 days, WST-1, read-out: GTx-SUDHL-1 IC50): 0.867 µM; IC50 [6]: > 10000 nM; IC50 (K299 lymphoma cells; read-out: GTx-K299 IC50): 532 nM; Papp (10−6 cm/sec) A to B (Caco-2 cells): 1.7 10−6 cm/sec; Efflux Ratio (Caco-2 cells): 0.5; efflux ratio at 2 h, 10 μM [5]: 0.8
7 | – | – | – | – | – | – | – | – | 7.89 | 1.46 | 0.629 | 18.4 | – | > 10000 | 8.77 | 1.32 | 6 | – | < 0.2 | 1.9 | C[C@@H](Cc1c(F)c(F)cc(F)c1F)Nc1cc[nH]c(=O)c1-c1nc2cc3c(cc2[nH]1)C(O)N(c1cccnc1)C3=O (stereo partly drawn) [Compound 13, 7-Hydroxy-2-(2-oxo-4-4(((S)-1-(2,3,5,6-tetrafluorophenyl)propan-2-yl)amino)-1,2-dihydropyridin-3-yl)-6-(pyridin-3-yl)-6,7-dihydroimidazo[4,5-f]isoindol-5(1H)-one] | IC50 (U937 lymphoma cells; [7]): > 3 µM; IC50 (K299 lymphoma cells; read-out: K299 IC50): 787 nM; efflux ratio at 2 h, 10 μM [5]: > 9.5
8 | – | – | – | – | – | – | – | – | – | – | – | – | – | – | – | – | – | 50.7 10−6 cm/sec | < 0.2 | 50.7 | CC(Oc1cc(-c2cnn(C3CCNCC3)c2)cnc1N)c1c(Cl)ccc(F)c1Cl (racemic) [PF2341066, crizotinib, reference compound] | IC50 (U937 lymphoma cells; read-out: GTx-U937 IC50 (uM)): 1.67 µM; IC50 (U937 lymphoma cells; read-out: U937 IC50(μM)): 1.67 µM; IC50 (SUDHL-1 lymphoma cells; read-out: GTx-SUDHL-1 IC50 (uM)): 0.132 µM; IC50 (SUDHL-1 lymphoma cells; read-out: SUDHL-1 IC50(μM)): 0.132 µM; IC50 (NB-1 neuroblastoma cells; read-out: GTx-NB-1 IC50 (uM)): 0.167 µM; IC50 (NB-1 neuroblastoma cells; read-out: NB-1 IC50(μM)): 0.167 µM; MRT ([4]; male, Sprague-Dawley, plasma, iv, 10 mg/kg I.V.): 1.88 h; Cmax [4, 8]: 58.3 ng/mL; Tmax [4, 8]: 5.25 h; Papp (10−6 cm/sec) A to B (Caco-2 cells; listed as Pfizer): >0.2 10−6 cm/sec; Papp (10−6 cm/sec) A to B (Caco-2 cells; listed as Pfizer (PF2341066)): <0.2 10−6 cm/sec
9 | 47.3 | – | – | – | – | – | – | 20.4 | < 5.8 | > 2 | > 2 | < 5.8 | 47 | > 10000 | < 5.8 | > 2 | 20 | – | < 0.2 | < 0.2 | C[C@@H](Cc1c(F)c(F)cc(F)c1F)Nc1cc[nH]c(=O)c1-c1nc2cc3c(cc2[nH]1)C(=O)N(c1cccnc1)C3=O [Compound 12, (S)-2-(2-oxo-4-((1-(2,3,5,6-tetrafluorophenyl)propan-2-yl)amino)-1,2-dihydropyridin-3-yl)-6-(pyridin-3-yl)imidazo[4,5-f]isoindole-5,7(1H,6H)-dione] | IC50 [6]: > 3000 nM; IC50 (K299 lymphoma cells; read-out: K299 IC50): > 10000 nM
10 | 9.16 | – | – | 13.1 | – | 0.688 | – | 4.33 | 29.4 | 0.393 | 0.343 | 33.3 | 9 | 1000 to 3000 | < 5.8 | > 2 | 4 | – | – | – | CC(Cc1cc(F)ccc1F)Nc1cc[nH]c(=O)c1-c1nc2cc3c(cc2[nH]1)C(=O)N(CCN(C)C)C3 (racemic) [Compound 18, 2-(4-(1-(2,5-Difluorophenyl)propan-2-ylamino)-2-oxo-1,2-dihydropyridin-3-yl)-6-(2-(dimethylamino)ethyl)-6,7-dihydroimidazo[4,5-f]isoindole-5(1H)-one] | IC50 (U937 lymphoma cells; [7]): > 3 µM; IC50 (SUDHL-1 lymphoma cells; 3 days, WST-1, read-out: SUDHL-1 IC50): 0.172 µM; IC50 [6]: 5420 nM; IC50 (K299 lymphoma cells; read-out: K299 IC50): 265 nM

From patent US8822500B2, “Tyrosine kinase inhibitors” (Chembridge Corporation, priority 2008, dated 2014)
